Test results from article PMC7181660, “A novel specific PERK activator reduces toxicity and extends survival in Huntington's disease models” (Scientific Reports, 2020).
Read-outs that look alike come from different tables or passages of the source.

What was measured:
Assay in all cases: biochemical
Assay type in all cases: biochemical
panel of 391 kinases [1] = biological target: panel of 391 kinases (Homo sapiens, UniProt O95382); details: MEKK6, MK-28 1 µM, ATP 1 µM
panel of 391 kinases [2] = biological target: panel of 391 kinases (Homo sapiens, UniProt P42345); details: kinase mTOR/FRAP1, compound at 1 µM, single dose in duplicates, 1 µM ATP
panel of 391 kinases [3] = biological target: panel of 391 kinases (Homo sapiens, UniProt Q9BWU1); details: CDK19/cyclin C, MK-28 1 µM, ATP 1 µM
panel of 391 kinases [4] = biological target: panel of 391 kinases (Homo sapiens, UniProt P29597); details: TYK2, MK-28 1 µM, ATP 1 µM
panel of 391 kinases [5] = biological target: panel of 391 kinases (Homo sapiens, UniProt P54756); details: EPHA5, MK-28 1 µM, ATP 1 µM
panel of 391 kinases [6] = biological target: panel of 391 kinases (Homo sapiens, UniProt Q00534); details: MK-28 1 µM, ATP 1 µM; for remaining activity at 1 µM: read-out: % Enzyme Activity (relative to DMSO controls)
panel of 391 kinases [7] = biological target: panel of 391 kinases (Homo sapiens, UniProt Q8NG66); details: NEK11, MK-28 1 µM, ATP 1 µM
panel of 391 kinases [8] = biological target: panel of 391 kinases (Homo sapiens, UniProt Q9NRM7); details: LATS2, MK-28 1 µM, ATP 1 µM
panel of 391 kinases [9] = biological target: panel of 391 kinases (Homo sapiens, UniProt Q13237); details: PKG2/PRKG2, MK-28 1 µM, ATP 1 µM
panel of 391 kinases [10] = biological target: panel of 391 kinases (Homo sapiens, UniProt Q00536); details: CDK16/cyclin Y (PCTAIRE), MK-28 1 µM, ATP 1 µM
panel of 391 kinases [11] = biological target: panel of 391 kinases (Homo sapiens, UniProt P53671); details: LIMK2, MK-28 1 µM, ATP 1 µM
panel of 391 kinases [12] = biological target: panel of 391 kinases (Homo sapiens, UniProt Q16539); details: P38a/MAPK14, MK-28 1 µM, ATP 1 µM
panel of 391 kinases [13] = biological target: panel of 391 kinases (Homo sapiens, UniProt Q16654); details: kinase PDK4/PDKH4, compound at 1 µM, single dose in duplicates, 1 µM ATP
panel of 391 kinases [14] = biological target: panel of 391 kinases (Homo sapiens, UniProt P05771); details: PKCb1, MK-28 1 µM, ATP 1 µM
panel of 391 kinases [15] = biological target: panel of 391 kinases (Homo sapiens, UniProt P51957); details: NEK4, MK-28 1 µM, ATP 1 µM
panel of 391 kinases [16] = biological target: panel of 391 kinases (Homo sapiens, UniProt Q02750); details: MEK1, MK-28 1 µM, ATP 1 µM
panel of 391 kinases [17] = biological target: panel of 391 kinases (Homo sapiens, UniProt Q9H792); details: PEAK1, MK-28 1 µM, ATP 1 µM
panel of 391 kinases [18] = biological target: panel of 391 kinases (Homo sapiens, UniProt Q9UL54); details: TAOK2/TAO1, MK-28 1 µM, ATP 1 µM
panel of 391 kinases [19] = biological target: panel of 391 kinases (Homo sapiens, UniProt P06213); details: IR, MK-28 1 µM, ATP 1 µM
panel of 391 kinases [20] = biological target: panel of 391 kinases (Homo sapiens, UniProt Q08881); details: ITK, MK-28 1 µM, ATP 1 µM
panel of 391 kinases [21] = biological target: panel of 391 kinases (Homo sapiens, UniProt P68400); details: CK2a, MK-28 1 µM, ATP 1 µM
panel of 391 kinases [22] = biological target: panel of 391 kinases (Homo sapiens, UniProt Q96PY6); details: NEK1, MK-28 1 µM, ATP 1 µM
panel of 391 kinases [23] = biological target: panel of 391 kinases (Homo sapiens, UniProt P42681); details: TXK, MK-28 1 µM, ATP 1 µM
panel of 391 kinases [24] = biological target: panel of 391 kinases (Homo sapiens, UniProt Q06418); details: TYRO3/SKY, MK-28 1 µM, ATP 1 µM
panel of 391 kinases [25] = biological target: panel of 391 kinases (Homo sapiens, UniProt Q8IYT8); details: ULK2, MK-28 1 µM, ATP 1 µM
panel of 391 kinases [26] = biological target: panel of 391 kinases (Homo sapiens, UniProt Q8N5S9); details: CAMKK1, MK-28 1 µM, ATP 1 µM
[27] = read-out: % Enzyme Activity (relative to DMSO controls)

With CN(/N=C\c1ccc(O)c(O)c1)c1nc(-c2ccccc2)cc(-c2ccccc2)n1 [MK-28] the “% Enzyme Activity (relative to DMSO controls)” value (panel of 391 kinases [1]) was 101.22%, the remaining activity at 1 µM (panel of 391 kinases [1]; [27]) was 108% and the “% Enzyme Activity (relative to DMSO controls)” value (panel of 391 kinases [2]) was 93.79%. For the same compound, the remaining activity at 1 µM (panel of 391 kinases [2]; [27]) was 94.4%, the “% Enzyme Activity (relative to DMSO controls)” value (panel of 391 kinases [3]) was 105.26% and the remaining activity at 1 µM (panel of 391 kinases [3]; [27]) was 108%. The “% Enzyme Activity (relative to DMSO controls)” value (panel of 391 kinases [4]) was 90.72%, the remaining activity at 1 µM (panel of 391 kinases [4]; [27]) was 91.3% and the “% Enzyme Activity (relative to DMSO controls)” value (panel of 391 kinases [5]) was 98.83%. For the same compound, the remaining activity at 1 µM (panel of 391 kinases [5]; [27]) was 103%, the “% Enzyme Activity (relative to DMSO controls)” value (panel of 391 kinases [6]; CDK6/cyclin D1) was 98.75% and the remaining activity at 1 µM (panel of 391 kinases [6]; CDK6/cyclin D1) was 102%. For the same compound, the “% Enzyme Activity (relative to DMSO controls)” value (panel of 391 kinases [6]; CDK6/cyclin D3) was 86.79%, the remaining activity at 1 µM (panel of 391 kinases [6]; CDK6/cyclin D3) was 87.6% and the “% Enzyme Activity (relative to DMSO controls)” value (panel of 391 kinases [7]) was 90.54%. The remaining activity at 1 µM (panel of 391 kinases [7]; [27]) was 93.3%, the “% Enzyme Activity (relative to DMSO controls)” value (panel of 391 kinases [8]) was 84.83% and the remaining activity at 1 µM (panel of 391 kinases [8]; [27]) was 88.2%. For the same compound, the “% Enzyme Activity (relative to DMSO controls)” value (panel of 391 kinases [9]) was 85.92%, the remaining activity at 1 µM (panel of 391 kinases [9]; [27]) was 86% and the “% Enzyme Activity (relative to DMSO controls)” value (panel of 391 kinases [10]) was 113.27%. The remaining activity at 1 µM (panel of 391 kinases [10]; [27]) was 119%, the “% Enzyme Activity (relative to DMSO controls)” value (panel of 391 kinases [11]) was 94.92% and the remaining activity at 1 µM (panel of 391 kinases [11]; [27]) was 95.4%. The “% Enzyme Activity (relative to DMSO controls)” value (panel of 391 kinases [12]) was 98.53%, the remaining activity at 1 µM (panel of 391 kinases [12]; [27]) was 100% and the “% Enzyme Activity (relative to DMSO controls)” value (panel of 391 kinases [13]) was 97.96%. For the same compound, the remaining activity at 1 µM (panel of 391 kinases [13]; [27]) was 98.2%, the “% Enzyme Activity (relative to DMSO controls)” value (panel of 391 kinases [14]) was 108.67% and the remaining activity at 1 µM (panel of 391 kinases [14]; [27]) was 111%. The “% Enzyme Activity (relative to DMSO controls)” value (panel of 391 kinases [15]) was 89.27%, the remaining activity at 1 µM (panel of 391 kinases [15]; [27]) was 91.6% and the “% Enzyme Activity (relative to DMSO controls)” value (panel of 391 kinases [16]) was 99.18%. For the same compound, the remaining activity at 1 µM (panel of 391 kinases [16]; [27]) was 100%, the “% Enzyme Activity (relative to DMSO controls)” value (panel of 391 kinases [17]) was 87.56% and the remaining activity at 1 µM (panel of 391 kinases [17]; [27]) was 88.6%. The “% Enzyme Activity (relative to DMSO controls)” value (panel of 391 kinases [18]) was 107.98%, the remaining activity at 1 µM (panel of 391 kinases [18]; [27]) was 111% and the “% Enzyme Activity (relative to DMSO controls)” value (panel of 391 kinases [19]) was 92.32%. For the same compound, the remaining activity at 1 µM (panel of 391 kinases [19]; [27]) was 94.4%, the “% Enzyme Activity (relative to DMSO controls)” value (panel of 391 kinases [20]) was 92.03% and the remaining activity at 1 µM (panel of 391 kinases [20]; [27]) was 92.4%. For the same compound, the “% Enzyme Activity (relative to DMSO controls)” value (panel of 391 kinases [21]) was 76.99%, the remaining activity at 1 µM (panel of 391 kinases [21]; [27]) was 81.1% and the “% Enzyme Activity (relative to DMSO controls)” value (panel of 391 kinases [22]) was 92.29%. For the same compound, the remaining activity at 1 µM (panel of 391 kinases [22]; [27]) was 94.7%, the “% Enzyme Activity (relative to DMSO controls)” value (panel of 391 kinases [23]) was 93.01% and the remaining activity at 1 µM (panel of 391 kinases [23]; [27]) was 94.1%. For the same compound, the “% Enzyme Activity (relative to DMSO controls)” value (panel of 391 kinases [24]) was 99.89%, the remaining activity at 1 µM (panel of 391 kinases [24]; [27]) was 100% and the “% Enzyme Activity (relative to DMSO controls)” value (panel of 391 kinases [25]) was 98.62%. For the same compound, the remaining activity at 1 µM (panel of 391 kinases [25]; [27]) was 102%, the “% Enzyme Activity (relative to DMSO controls)” value (panel of 391 kinases [26]) was 101.88% and the remaining activity at 1 µM (panel of 391 kinases [26]; [27]) was 102%.
